Consider 1 compound from patent US20040180104A1, “Herbal composition for preventing and/or treating conditions in associated with depression” (priority 2003, published 2004).

The subject of the assay is duration of immobility (despair) in rodents. Briefly: Forced Swimming Test (FST). It counts as in vivo. The following applies: male BALB mice, imipramine.

Method: Rodents are placed individually into an transparent acrylic cuboid containing 15 cm (for the mice) or 30 cm (for the rats) of water at 24+1° C. for 6 minutes. The durations of struggling, active movement and immobility in the test is recorded by an automatic device. A 15 minutes pre-test was performed 20-24 hours prior to the test. The duration of immobility is used as a parameter of despair in the rodents.
160-250 g of male Wistar rats were purchased from NSC (National Science Council, Taipei Taiwan). The animals were placed at constant ambient temperature (25±1° C.) with food and water available and on a 12:12-h LD cycle (lights on at 06:00, off at 18:00.)
The FST test as mentioned herein was performed.

Turning to `CN(C)CCCN1c2ccccc2CCc2ccccc21` [Imipramine], the “duration of immobility (in words)” value was “reduction in the duration of immobility”.
